The source of these data is paper PMC5748279, “Novel Antitubercular 6-Dialkylaminopyrimidine Carboxamides from Phenotypic Whole-Cell High Throughput Screening of a SoftFocus Library: Structure–Activity Relationship and Target Identification Studies” (Journal of Medicinal Chemistry, 2017).

“Also recorded” adds a separate entry of the source. A value given as a limit tells only on which side of the number the result lay.

Series [1] relates to PrecA-LUX reporter (genotoxic compounds). The class given is cell-based. The following applies: luminescence over 7 days, CIPRO control.
For series [2], the system named is cytochrome bd oxidase knockout mutant strain (cydKO). Type of series: cell-based. Conditions: 7H9 GLU ADC medium.
The test system of series [3] is PiniB-LUX reporter (Mtb cell wall biosynthesis). The class given is cell-based. The following applies: luminescence over 7 days, INH control.
Another series can be described thus: physchem. Type of series: physicochemical. The procedure:
The kinetic solubility assay was performed using a miniaturised shake flask method. 10 mM stock […]
DMSO, and to spike (1:50) duplicate aqueous samples of FaSSIF (simulating fasting state biorelevant media, pH 6.5), with a final DMSO concentration of 2%. After shaking for 2 hours at 25 °C, the solutions were filtered and analysed by means of HPLC,DAD (Agilent 1200 Rapid Resolution HPLC with a diode array detector). Best fit calibration curves were constructed using the calibration standards, which were used to determine the aqueous samples’ solubility.13
4.2) Microsomal stability
The metabolic stability assay was performed in duplicate in a 96,well micro titre plate. The test compounds (0.1 µM) were incubated individually in mouse, rat and pooled human liver […]
the cofactor NADPH (1 mM). Reactions were quenched by adding 300 µL of ice cold acetonitrile containing internal standard (carbamazepine, 0.0236 µg/mL). Test compounds in the supernatant were analysed by means of LC,MS/MS (Agilent Rapid Resolution HPLC, AB SCIEX 4000 QTRAP MS) for the disappearance of parent compound. Metabolite searches were not conducted during the metabolic stability assay.14
4.3) Plasma protein binding (PPB) assay
The plasma protein binding assay was performed in a 96,well micro titre plate with pooled human plasma, spiked with test compound (5 µM). An aliquot was immediately removed and quenched using ice cold acetonitrile containing internal standard (carbamazepine, 0.0236 µg/mL), and placed in the freezer. This served as the total concentration sample. After pre,incubation (37 °C for 1 hour) duplicate aliquots of the spiked plasma were transferred to ultra,centrifugation tubes, […]

In a further series the test system is Vero cell lines. The class given is cell-based, African green monkey. The following applies: read-out: Cytotoxicity (IC50 on Vero cell lines). The procedure: chemosensitivity. […]. Thus only viable cells
formazan. Formazan crystals are dissolved in DMSO. The test samples were tested in triplicate on
experiment. […] Emetine was used
as the reference drug in all experiments. The initial concentration of emetine was 100 µg/mL,
lowest being 0.001 µg/mL. […] The
the cell viability (data not shown).
GraphPad Prism v.4 software.
expressing the full length hERG channel. Single cell ionic currents were measured in the […]

Series [4] has as its system Mycobacterium tuberculosis (H37RvMa). The series is described as follows: microbe, parasite or virus in culture. Type of series: cell-based. Conditions: for MIC99 7H9/ADC: 7H9/ADC medium; for MIC99 GAST/Fe: GAST/Fe medium.

For `COc1ccc(NC(=O)c2cc(N(C)Cc3ccccc3)ncn2)cc1` [Compound 1, 6-(Benzyl(methyl)amino)-N-(4-methoxyphenyl)pyrimidine-4-carboxamide], the PrecA-LUX reporter response entry in series [1] was “delayed (Day 3 onwards) induction of luminescence”. Moreover, the “Δcyd 7H9 GLU ADC MIC99” value in series [2] is over 20 µM. For the same compound, the PiniB-LUX reporter response result in series [3] was “did not elicit a positive response; also recorded: no response”.

Turning to “N-(4-(4-Acetylpiperazin-1-yl)phenyl)-6-(methyl((6-(trifluoromethyl)pyridin-3-yl)methyl)amino)pyrimidine-4-carboxamide [Compound 44]”, in “physchem” (pH 7.4), the solubility (kinetic) at 2 h was under 5 µM. For the same compound, the Solubility in the series “physchem” (supplementary csv) was <5 æM. In addition, in the series on Vero cell lines, the IC50 is over 50 µM. For the same compound, the “MIC99 7H9/ADC” value in series [4] is 4.7 µM; in series [4] (supplementary csv) it was 4.7 æM. Further, the “MIC99 GAST/Fe” value in series [4] was 2.3 µM; in series [4] (supplementary csv), 2.3 æM. Moreover, the MIC in series [4] (medium not stated) was under 5 µM.

For orientation: solubility (kinetic) means the concentration staying in solution when a stock, usually in DMSO, is diluted into the medium. Usually IC50 stands for the midpoint of a concentration-inhibition curve.
